This is an account of results in patent publication US10662159B2, “ABHD6 and dual ABHD6/MGL inhibitors and their uses” (MAKScientific, LLC, priority 2017, dated 2020).

What all share (format): biochemical
One experiment deals with Rat ΔTM FAAH (Rattus norvegicus (Rat), UniProt P97612). Kind of experiment: Fluorescent assay for rat ΔTM FAAH (AAMCA substrate). Conditions: ΔTM rFAAH, AAMCA 20 μM; read-out: rFAAH Inhibition IC50. The method, then: (§1) Certain compounds were tested for their ABHD6 and dual ABHD6/MGL inhibitory activity, which is expressed as % of inhibition or IC50 values in Table 1. The percentage of inhibition describes the percentage by which the inhibitor reduces the velocity/rate of 2-AG hydrolysis by ABHD6, and MGL or AEA hydrolysis by FAAH. The IC50 is the concentration of the inhibitor, which results in 50% inhibition of the velocity/rate of 2-AG hydrolysis by ABHD6 or MGL. The IC50 is the concentration of the inhibitor, which results in 50% inhibition of the velocity/rate of AEA hydrolysis by FAAH. The lower the IC50 values, the higher its inhibitory activity. A detailed description of the methods used to test inhibitory activity of compounds is given below.
Rat ΔTM FAAH, sequence (P97612 30-579): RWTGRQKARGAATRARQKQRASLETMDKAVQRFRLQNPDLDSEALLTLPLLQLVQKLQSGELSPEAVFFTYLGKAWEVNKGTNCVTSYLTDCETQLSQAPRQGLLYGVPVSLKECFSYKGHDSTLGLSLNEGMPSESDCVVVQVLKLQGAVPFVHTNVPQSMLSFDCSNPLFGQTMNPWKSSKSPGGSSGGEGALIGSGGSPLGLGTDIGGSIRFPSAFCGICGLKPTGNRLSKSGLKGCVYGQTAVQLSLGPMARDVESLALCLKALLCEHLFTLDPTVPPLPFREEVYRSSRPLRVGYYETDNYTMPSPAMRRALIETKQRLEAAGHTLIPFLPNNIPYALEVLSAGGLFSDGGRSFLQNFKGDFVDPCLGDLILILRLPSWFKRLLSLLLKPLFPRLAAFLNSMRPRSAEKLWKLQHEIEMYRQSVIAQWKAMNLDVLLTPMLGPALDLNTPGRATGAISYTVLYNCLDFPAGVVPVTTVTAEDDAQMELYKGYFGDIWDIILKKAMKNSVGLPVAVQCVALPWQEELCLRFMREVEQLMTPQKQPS
Example 79. Preparation of Transmembrane Domain-Deleted Rat FAAH (ΔTM rFAAH)
Rat ΔTM FAAH was expressed in E. coli cells and purified using the procedure disclosed by Patricelli et al. Biochemistry (1998) 37: 15177-15187.
Example 81. Fluorescent Assay Protocol for Rat ΔTM FAAH
(§2) The fluorescence reading at the 3 hour time point (linear enzyme kinetics) was used to calculate percent inhibition based on control assays without inhibitor present. All FAAH assays were performed in triplicate for each inhibitor concentration, and IC50 values determined using Prizm software (GraphPad Software, Inc.).

Another experiment has as its target hMGL (Homo sapiens (Human), UniProt Q99685). In words: Fluorescent assay for hMGL (AHMMCE substrate hydrolysis). The note with it: E. coli lysate containing hMGL, read-out: hMGL Inhibition IC50. The method, then:
(§3) Certain compounds were tested for their ABHD6 and dual ABHD6/MGL inhibitory activity, which is expressed as % of inhibition or IC50 values in Table 1. The percentage of inhibition describes the percentage by which the inhibitor reduces the velocity/rate of 2-AG hydrolysis by ABHD6, and MGL or AEA hydrolysis by FAAH. […] The lower the IC50 values, the higher its inhibitory activity. A detailed description of the methods used to test inhibitory activity of compounds is given below.
Preparation of Human MAGL (hMAGL)
Fluorescent Assay Protocol for hMGL
This medium throughput assay involved a 96-well plate format in which hMGL activity was monitored by the hydrolysis of the substrate […] (AHMMCE) to form the fluorescent product, coumarin. […] Upon the addition of AHMMCE, the reaction was incubated at 25° C. for 120 min; fluorescence readings were taken every 15 min at 360 nm/460 nm (λexcitation/λemission) using a Synergy HT Plate Reader (Bio-Tek, Winooski, Vt.). […] External standards were used to convert relative fluorescence units to the amount of 4-methylcoumarin formed. All MGL assays were performed in triplicate for each inhibitor concentration, and IC50 values were calculated using Prizm software (GraphPad Software, Inc., San Diego, Calif.).

A further experiment concerns the target hFAAH (Homo sapiens (Human), UniProt O00519). In words: Fluorescent assay for hFAAH. Conditions: MBP ΔTM hFAAH, procedure as for rFAAH; read-out: hFAAH Inhibition IC50. The method, then:
as §1
Example 80. Preparation of Human FAAH in Fusion with N-Terminal Maltose Binding Tag (MBP ΔTM hFAAH)
Human FAAH without putative transmembrane domain following maltose binding protein was expressed in E. coli cells using pMALcE4 vector Alapafuja et al J. Med. Chem. (2012) 55: 10074-89.
as §2
Example 82. Fluorescent Assay Protocol for hFAAH
Procedure was followed as described for rFAAH.

For the next experiment, the target named is hABHD6 (Homo sapiens (Human), UniProt Q9BV23). In words: Fluorescent assay for hABHD6 (AHMMCE substrate hydrolysis). The note with it: membrane fraction containing full-length hABHD6, 20 μM AHMMCE; read-out: ABHD6 Inhibition IC50. The method, then:
as §3
Fluorescent Assays Protocol for hABHD6
Initial Fluorescent Inhibition Assay (3-Point)—
In each well of a 96-well plate 8 μL of membrane fraction containing full-length hABHD6 (1 μg total protein) was mixed with 168 μL of assay buffer (50 mM Tris-HCl, pH 7.6), and 20 μL of diluted compound (diluted in a dilution buffer consisting of 50% DMSO/50% assay buffer v/v). Each plate was incubated at RT for 15 minutes before adding 4 μL of 1 mM AHMMCE substrate (final concentration of 20 μM AHMMCE and final volume of 200 μL). The reaction was allowed to proceed for 1 hr at RT before the fluorescence was read at λex 360 nm and λem 460 nm and the inhibition calculated. Each experiment can test 8 compounds at three concentrations (usually 10 μM, 1 μM, and 100 nM).
IC50 Determination Assay (8-Point)—
A more detailed assay with an extended range tests compounds over 8 concentrations depending on the pre-determined approximate IC50 value from the initial screen. […] The assay was conducted in 96 well plate with each well containing the same reaction mixture detailed above in the 3-point screen. The relative fluorescence is quantified into coumarin produced by using a standard curve of HMMC in triplicate on each plate. Results are normalized to the negative control wells and the IC50 is determined using a non-linear regression curve fit in Prism, version 5 (GraphPad, San Diego, Calif.).

hMGL, sequence (Q99685 whole entry): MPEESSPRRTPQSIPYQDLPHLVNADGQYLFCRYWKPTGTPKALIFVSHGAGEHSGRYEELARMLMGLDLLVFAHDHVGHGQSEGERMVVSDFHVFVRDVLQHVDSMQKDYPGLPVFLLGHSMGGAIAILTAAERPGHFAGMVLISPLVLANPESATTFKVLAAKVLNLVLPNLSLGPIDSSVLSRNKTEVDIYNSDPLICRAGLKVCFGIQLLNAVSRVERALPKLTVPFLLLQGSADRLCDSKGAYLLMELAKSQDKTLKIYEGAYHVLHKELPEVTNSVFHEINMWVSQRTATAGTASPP
hFAAH, sequence (O00519 30-579): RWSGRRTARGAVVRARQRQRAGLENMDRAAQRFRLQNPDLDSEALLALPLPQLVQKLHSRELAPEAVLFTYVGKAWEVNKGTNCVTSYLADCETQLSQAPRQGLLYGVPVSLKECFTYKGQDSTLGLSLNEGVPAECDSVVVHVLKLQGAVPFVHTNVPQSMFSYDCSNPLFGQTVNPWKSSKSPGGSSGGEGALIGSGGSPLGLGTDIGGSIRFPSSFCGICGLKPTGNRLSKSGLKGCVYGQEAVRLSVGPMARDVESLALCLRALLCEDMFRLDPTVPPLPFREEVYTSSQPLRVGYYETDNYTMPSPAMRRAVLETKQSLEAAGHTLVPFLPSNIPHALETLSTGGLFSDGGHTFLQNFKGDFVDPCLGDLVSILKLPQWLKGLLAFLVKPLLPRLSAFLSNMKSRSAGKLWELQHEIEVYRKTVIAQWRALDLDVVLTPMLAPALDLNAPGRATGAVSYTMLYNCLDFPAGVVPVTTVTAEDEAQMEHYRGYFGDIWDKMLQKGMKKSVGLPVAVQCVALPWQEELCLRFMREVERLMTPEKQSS
hABHD6, sequence (Q9BV23 whole entry): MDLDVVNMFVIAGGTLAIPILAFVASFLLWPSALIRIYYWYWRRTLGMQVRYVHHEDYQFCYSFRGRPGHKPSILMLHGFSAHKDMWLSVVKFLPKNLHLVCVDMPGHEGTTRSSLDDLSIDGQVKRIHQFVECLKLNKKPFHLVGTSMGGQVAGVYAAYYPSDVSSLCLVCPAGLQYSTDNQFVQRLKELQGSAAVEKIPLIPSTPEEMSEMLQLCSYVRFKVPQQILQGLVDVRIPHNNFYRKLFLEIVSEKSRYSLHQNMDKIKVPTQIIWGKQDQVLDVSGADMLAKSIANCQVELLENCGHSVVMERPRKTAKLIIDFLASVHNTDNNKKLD

With `COc1cc2c(cc1OC)CN(C(=O)OC(C(F)(F)F)C(F)(F)F)C2` [Example 21, 1,1,1,3,3,3-Hexafluoropropan-2-yl 5,6-dimethoxyisoindoline-2-carboxylate], the IC50 was above 1 µM at Rat ΔTM FAAH, above 1 µM on hMGL, above 1 µM at hFAAH and 0.01 to 0.1 µM at hABHD6.

As to `O=C(OC(C(F)(F)F)C(F)(F)F)N1CCc2ccccc2[C@@H]1c1ccccc1` [Example 3, 1,1,1,3,3,3-Hexafluoropropan-2-yl (S)-1-phenyl-3,4-dihydroisoquinoline-2(1H)-carboxylate], the IC50 on Rat ΔTM FAAH, at hMGL, on hFAAH and at hABHD6 was above 1 µM each time.

For `O=C(OC(C(F)(F)F)C(F)(F)F)N1Cc2cccc(Br)c2C1` [Example 12, 1,1,1,3,3,3-Hexafluoropropan-2-yl 4-bromoisoindoline-2-carboxylate], the IC50 at Rat ΔTM FAAH is above 1 µM; at hMGL it was above 1 µM; on hFAAH, above 1 µM; on hABHD6, 0.1 to 1 µM.

With `O=C(OC(C(F)(F)F)C(F)(F)F)N1CCc2cc(Br)ccc2C1` [Example 17, 1,1,1,3,3,3-Hexafluoropropan-2-yl 6-bromo-3,4-dihydroisoquinoline-2(1H)-carboxylate], the concentration for half-maximal inhibition (IC50) is above 1 µM on Rat ΔTM FAAH, above 1 µM on hMGL, above 1 µM at hFAAH and 0.01 to 0.1 µM at hABHD6.

On to `CC1CN(C(=O)OC(C(F)(F)F)C(F)(F)F)Cc2ccccc21` (stereo not drawn) [Example 20, 1,1,1,3,3,3-Hexafluoropropan-2-yl 4-methyl-3,4-dihydroisoquinoline-2(1H)-carboxylate], for which the IC50 at Rat ΔTM FAAH is above 1 µM; at hMGL, above 1 µM; at hFAAH, above 1 µM; at hABHD6, 0.1 to 1 µM.

For `O=C(OC(C(F)(F)F)C(F)(F)F)N1CCc2cccc(-c3ccccc3)c2C1` [Example 27, 1,1,1,3,3,3-Hexafluoropropan-2-yl 8-phenyl-3,4-dihydroisoquinoline-2(1H)-carboxylate], the IC50 on Rat ΔTM FAAH, on hMGL, at hFAAH and at hABHD6 was above 1 µM throughout.

With `O=C(OC(C(F)(F)F)C(F)(F)F)N1CCc2cc(Br)ccc21` [Example 10, 1,1,1,3,3,3-Hexafluoropropan-2-yl 5-bromoindoline-1-carboxylate], the half-maximal inhibitory concentration (IC50) is above 1 µM at Rat ΔTM FAAH, above 1 µM on hMGL, above 1 µM at hFAAH and 0.1 to 1 µM on hABHD6.

`O=C(OC(C(F)(F)F)C(F)(F)F)N1Cc2ccc(OCC(F)F)cc2C1` [Example 45, 1,1,1,3,3,3-Hexafluoropropan-2-yl 5-(2,2-difluoroethoxy)isoindoline-2-carboxylate]: the IC50 is above 1 µM on Rat ΔTM FAAH, 0.01 to 0.1 µM on hMGL, above 1 µM at hFAAH and 0.01 to 0.1 µM at hABHD6.

For `O=C(OC(C(F)(F)F)C(F)(F)F)N1CC[C@]2(C1)C[C@@H](OC(c1ccc(F)cc1)c1ccc(F)cc1)C2` [Example 67, 1,1,1,3,3,3-Hexafluoropropan-2-yl (2r,4s)-2-(bis(4-fluorophenyl)methoxy)-6-azaspiro[3.4]octane-6-carboxylate], the IC50 at Rat ΔTM FAAH was 0.01 to 0.1 µM; at hMGL, 0.01 to 0.1 µM; on hFAAH, above 1 µM; on hABHD6 it was 0.01 to 0.1 µM.

As for `O=C(OC(C(F)(F)F)C(F)(F)F)N1Cc2ccc(Br)cc2C1` [Example 8, 1,1,1,3,3,3-Hexafluoropropan-2-yl 5-bromoisoindoline-2-carboxylate], the IC50 on Rat ΔTM FAAH was above 1 µM; at hMGL, above 1 µM; at hFAAH it was above 1 µM; at hABHD6 it was 0.01 to 0.1 µM.

On to `O=C(OC(C(F)(F)F)C(F)(F)F)N1CCCc2ccccc2C1` [Example 24, 1,1,1,3,3,3-Hexafluoropropan-2-yl 1,3,4,5-tetrahydro-2H-benzo[c]azepine-2-carboxylate], for which the IC50 on Rat ΔTM FAAH, on hMGL, on hFAAH and at hABHD6 was above 1 µM in each case.

As to `O=C(OC(C(F)(F)F)C(F)(F)F)N1CC2(CC(Oc3cncc(F)c3)C2)C1` [Example 60, 1,1,1,3,3,3-Hexafluoropropan-2-yl 6-((5-fluoropyridin-3-yl)oxy)-2-azaspiro[3.3]heptane-2-carboxylate], the IC50 at Rat ΔTM FAAH is above 1 µM; at hMGL, above 1 µM; on hFAAH, above 1 µM; on hABHD6, 0.01 to 0.1 µM.

For `CC1Cc2ccccc2CN1C(=O)OC(C(F)(F)F)C(F)(F)F` (stereo not drawn) [Example 13, 1,1,1,3,3,3-Hexafluoropropan-2-yl 3-methyl-3,4-dihydroisoquinoline-2(1H)-carboxylate], the half-inhibitory concentration (IC50) at Rat ΔTM FAAH, on hMGL, on hFAAH and at hABHD6 was above 1 µM in each case.

On to `CC1c2ccccc2CCN1C(=O)OC(C(F)(F)F)C(F)(F)F` (racemic) [Example 6, 1,1,1,3,3,3-Hexafluoropropan-2-yl 1-methyl-3,4-dihydroisoquinoline-2(1H)-carboxylate], for which the IC50 at Rat ΔTM FAAH, at hMGL, at hFAAH and on hABHD6 was above 1 µM each time.

Consider `COc1ccc2c(c1)CN(C(=O)OC(C(F)(F)F)C(F)(F)F)C2` [Example 9, 1,1,1,3,3,3-Hexafluoropropan-2-yl 5-methoxyisoindoline-2-carboxylate], for which the IC50 on Rat ΔTM FAAH is above 1 µM; at hMGL it was above 1 µM; at hFAAH, above 1 µM; on hABHD6 it was 0.01 to 0.1 µM.

For the molecule `COc1ccc2c(c1)CN(C(=O)ON1C(=O)C3C(C1=O)C3(C)C)C2` (stereo not drawn) [Example 38, 6,6-Dimethyl-2,4-dioxo-3-azabicyclo[3.1.0]hexan-3-yl 5-methoxyisoindoline-2-carboxylate], the IC50 at Rat ΔTM FAAH, at hMGL and at hABHD6 was above 1 µM each time.

As to `COc1ccc2c(c1)CCN(C(=O)OC(C(F)(F)F)C(F)(F)F)C2` [Example 23, 1,1,1,3,3,3-Hexafluoropropan-2-yl 6-methoxy-3,4-dihydroisoquinoline-2(1H)-carboxylate], the values for the IC50 on Rat ΔTM FAAH, on hMGL and on hABHD6 were above 1 µM, above 1 µM and 0.01 to 0.1 µM, respectively.

Turning to `O=C(OC(C(F)(F)F)C(F)(F)F)N1CC2(CCC(Oc3cccc(F)c3)C2)C1` (stereo not drawn) [Example 59, 1,1,1,3,3,3-Hexafluoropropan-2-yl 6-(3-fluorophenoxy)-2-azaspiro[3.4]octane-2-carboxylate], the IC50 on Rat ΔTM FAAH, on hMGL and at hABHD6 was 0.01 to 0.1 µM throughout.
